Data from PubChem BioAssay AID256 (DTP/NCI, 2004).
Several values for one entry are separate records, joined by “and”; a condition that tells them apart may be missing. Equal entries are not always repeated. Toxic doses and inconclusive results are not listed.

Test system: CD2F1 mice, L1210 leukemia ip, survival T/C
Assay: NCI In Vivo Anticancer Drug Screen. Data for tumor model L1210 Leukemia (intraperitoneal) in CD2F1 (CDF1) mice
Details: higher = longer survival
In short: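 Mice carrying a transplanted tumor received test compound or vehicle alone. The value is the measurement in the treated group divided by that in the vehicle-treated control group.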

[1] = endpoint: mean survival time, dose: 6.25 mg/kg/injection, schedule: Q01DX009 (ip), vehicle: saline with Tween-80
[2] = endpoint: mean survival time, dose: 12.5 mg/kg/injection, schedule: Q01DX009 (ip), vehicle: saline with Tween-80
[3] = endpoint: mean survival time, dose: 100.0 mg/kg/injection, schedule: Q01DX009 (ip), vehicle: saline with Tween-80
[4] = endpoint: mean survival time, dose: 200.0 mg/kg/injection, schedule: Q01DX009 (ip), vehicle: saline with Tween-80
[5] = endpoint: mean survival time, dose: 400.0 mg/kg/injection, schedule: Q01DX009 (ip), vehicle: saline with Tween-80
[6] = endpoint: mean survival time, dose: 100.0 mg/kg/injection, schedule: Q04DX002 (ip), vehicle: saline with Tween-80
[7] = endpoint: mean survival time, dose: 200.0 mg/kg/injection, schedule: Q04DX002 (ip), vehicle: saline with Tween-80
[8] = endpoint: mean survival time, dose: 400.0 mg/kg/injection, schedule: Q04DX002 (ip), vehicle: saline with Tween-80
[9] = endpoint: mean survival time, dose: 100.0 mg/kg/injection, schedule: Q01DX001 (ip), vehicle: saline
[10] = endpoint: mean survival time, dose: 200.0 mg/kg/injection, schedule: Q01DX001 (ip), vehicle: saline
[11] = endpoint: mean survival time, dose: 400.0 mg/kg/injection, schedule: Q01DX001 (ip), vehicle: saline
[12] = endpoint: mean survival time, dose: 100.0 mg/kg/injection, schedule: Q04DX003 (ip), vehicle: saline with Tween-80
[13] = endpoint: mean survival time, dose: 200.0 mg/kg/injection, schedule: Q04DX003 (ip), vehicle: saline with Tween-80
[14] = endpoint: mean survival time, dose: 400.0 mg/kg/injection, schedule: Q04DX003 (ip), vehicle: saline with Tween-80

O=C1C=CN(C2OC(CO)C(O)C2O)C(=O)C1 (stereo unspecified) was tested, and the T/C [1] was 120 % of control, the T/C [2] was 124 % of control and the T/C (endpoint: mean survival time, dose: 75.0 mg/kg/injection, schedule: Q01DX005 (ip), vehicle: saline) was 113 % of control. For the same compound, the T/C [3] was 102 % of control, the T/C (endpoint: mean survival time, dose: 150.0 mg/kg/injection, schedule: Q01DX005 (ip), vehicle: saline) was 122 % of control and the T/C (endpoint: mean survival time, dose: 150.0 mg/kg/injection, schedule: Q01DX005 (iv), vehicle: saline) was 124 % of control. The T/C [4] was 113 % of control, the T/C (endpoint: mean survival time, dose: 300.0 mg/kg/injection, schedule: Q01DX005 (ip), vehicle: saline) was 101 % of control and the T/C (endpoint: mean survival time, dose: 300.0 mg/kg/injection, schedule: Q01DX005 (iv), vehicle: saline) was 116 % of control. The T/C [5] was 93 % of control, the T/C (endpoint: mean survival time, dose: 600.0 mg/kg/injection, schedule: Q01DX005 (ip), vehicle: saline) was 119 % of control and the T/C (endpoint: median survival time, dose: 12.5 mg/kg/injection, schedule: Q01DX009 (ip), vehicle: saline) was 121 % of control. For the same compound, the T/C (endpoint: median survival time, dose: 25.0 mg/kg/injection, schedule: Q01DX009 (ip), vehicle: saline) was 172 % of control and the T/C (endpoint: median survival time, dose: 75.0 mg/kg/injection, schedule: Q01DX009 (ip), vehicle: saline) was 113 % of control.
In the case of NC(=S)/N=C\C(CC(O)C(O)C(O)CO)=N\NC(N)=S (stereo unspecified), the T/C [1] is reported as 96 % of control, the T/C [2] is reported as 96 % of control and the T/C (endpoint: mean survival time, dose: 25.0 mg/kg/injection, schedule: Q01DX009 (ip), vehicle: saline with Tween-80) is reported as 95 % of control and 100 % of control. For the same compound, the T/C (endpoint: mean survival time, dose: 50.0 mg/kg/injection, schedule: Q01DX009 (ip), vehicle: saline with Tween-80) was 93 % of control and 101 % of control, the T/C [3] was 101 % of control and the T/C [4] was 86 % of control.
COc1cc(NC(=O)Nc2ccccc2OC)c(OC)cc1Cl was tested, and the T/C [6] was 90 % of control, the T/C [7] was 93 % of control and the T/C [8] was 107 % of control.
In the case of N=c1cc([N+](=O)[O-])ccn1O, the T/C [9] is reported as 97 % of control, the T/C [10] is reported as 97 % of control and the T/C [11] is reported as 105 % of control.
O=C(O)C1CCC=CCC1 was tested, and the T/C (endpoint: mean survival time, dose: 100.0 mg/kg/injection, schedule: Q04DX003 (ip), vehicle: other) was 103 % of control, the T/C (endpoint: mean survival time, dose: 200.0 mg/kg/injection, schedule: Q04DX003 (ip), vehicle: other) was 94 % of control and the T/C (endpoint: mean survival time, dose: 400.0 mg/kg/injection, schedule: Q04DX003 (ip), vehicle: other) was 89 % of control.
In the case of Nc1ccc2nc3ccc(N)cc3[n+](-c3ccccc3)c2c1, the T/C (endpoint: mean survival time, dose: 6.0 mg/kg/injection, schedule: Q01DX009 (ip), vehicle: saline) is reported as 105 % of control, the T/C (endpoint: mean survival time, dose: 8.0 mg/kg/injection, schedule: Q01DX009 (ip), vehicle: saline) is reported as 105 % of control and the T/C (endpoint: mean survival time, dose: 12.0 mg/kg/injection, schedule: Q01DX009 (ip), vehicle: saline) is reported as 110 % of control.
COC(=O)C(Cc1[nH]c(N=Nc2ccc(Br)cc2)nc1N=Nc1ccc(Br)cc1)NC(C)=O (stereo unspecified) was tested, and the T/C [6] was 93 % of control, the T/C [7] was 96 % of control and the T/C [8] was 96 % of control.
In the case of CCOc1cccc(Cc2cn(Cc3ccc(NC(=O)c4cccc(S(=O)(=O)F)c4)cc3)c(=O)[nH]c2=O)c1, the T/C (endpoint: mean survival time, dose: 75.0 mg/kg/injection, schedule: Q01DX001 (ip), vehicle: saline with Tween-80) is reported as 94 % of control, the T/C (endpoint: mean survival time, dose: 150.0 mg/kg/injection, schedule: Q01DX001 (ip), vehicle: saline with Tween-80) is reported as 89 % of control and the T/C (endpoint: mean survival time, dose: 300.0 mg/kg/injection, schedule: Q01DX001 (ip), vehicle: saline with Tween-80) is reported as 94 % of control.
For [Br][Pt+2][Br].[NH-]c1cccc(I)c1.[NH-]c1cccc(I)c1, the T/C (endpoint: mean survival time, dose: 3.12 mg/kg/injection, schedule: Q04DX003 (ip), vehicle: distilled water + Tween-80) was 98 % of control, the T/C (endpoint: mean survival time, dose: 6.25 mg/kg/injection, schedule: Q04DX003 (ip), vehicle: distilled water + Tween-80) was 101 % of control and the T/C (endpoint: mean survival time, dose: 12.5 mg/kg/injection, schedule: Q04DX003 (ip), vehicle: distilled water + Tween-80) was 101 % of control. For the same compound, the T/C (endpoint: mean survival time, dose: 25.0 mg/kg/injection, schedule: Q04DX003 (ip), vehicle: distilled water + Tween-80) was 101 % of control, the T/C (endpoint: mean survival time, dose: 50.0 mg/kg/injection, schedule: Q04DX003 (ip), vehicle: distilled water + Tween-80) was 101 % of control and the T/C (endpoint: mean survival time, dose: 100.0 mg/kg/injection, schedule: Q04DX003 (ip), vehicle: distilled water + Tween-80) was 98 % of control. For the same compound, the T/C (endpoint: mean survival time, dose: 200.0 mg/kg/injection, schedule: Q04DX003 (ip), vehicle: distilled water + Tween-80) was 114 % of control.
In the case of O=C(Nc1cccc(Cl)c1)c1c[nH]c2cc(Cl)ccc2c1=O, the T/C [3] is reported as 101 % of control, the T/C [12] is reported as 96 % of control and the T/C [4] is reported as 95 % of control. For the same compound, the T/C [13] was 93 % of control, the T/C [5] was 101 % of control and the T/C [14] was 93 % of control.
For CCN(C(=O)Nc1cc([N+](=O)[O-])ccc1C)c1cc(C)ccc1OC, the T/C [3] was 88 % of control, the T/C [4] was 94 % of control and the T/C [5] was 94 % of control.
For CCOC(=O)NC(S(=O)(=O)O)S(=O)(=O)O.[Tl], the T/C (endpoint: mean survival time, dose: 6.25 mg/kg/injection, schedule: Q01DX001 (ip), vehicle: saline with Tween-80) was 98 % of control, the T/C (endpoint: mean survival time, dose: 12.5 mg/kg/injection, schedule: Q01DX001 (ip), vehicle: saline with Tween-80) was 90 % of control and the T/C (endpoint: mean survival time, dose: 25.0 mg/kg/injection, schedule: Q01DX001 (ip), vehicle: saline with Tween-80) was 98 % of control.
In the case of Cc1cc(=O)[nH]c(O)c1C#N, the T/C [12] is reported as 96 % of control, the T/C [13] is reported as 94 % of control and the T/C [14] is reported as 94 % of control.
For O=C(Sc1ccccc1)C(CO)c1ccccc1 (stereo unspecified), the T/C (endpoint: mean survival time, dose: 25.0 mg/kg/injection, schedule: Q04DX002 (ip), vehicle: saline with Tween-80) was 101 % of control, the T/C (endpoint: mean survival time, dose: 50.0 mg/kg/injection, schedule: Q04DX002 (ip), vehicle: saline with Tween-80) was 101 % of control and the T/C [6] was 97 % of control.
Cc1ccc(S(=O)c2ccc(C)cc2)cc1 was tested, and the T/C (endpoint: mean survival time, dose: 100.0 mg/kg/injection, schedule: Q01DX001 (ip), vehicle: Klucel (hydroxypropylcellulose) (HPC)) was 101 % of control, the T/C (endpoint: mean survival time, dose: 100.0 mg/kg/injection, schedule: Q01DX001 (ip), vehicle: saline with Tween-80) was 100 % of control and the T/C (endpoint: mean survival time, dose: 200.0 mg/kg/injection, schedule: Q01DX001 (ip), vehicle: Klucel (hydroxypropylcellulose) (HPC)) was 89 % of control. The T/C (endpoint: mean survival time, dose: 200.0 mg/kg/injection, schedule: Q01DX001 (ip), vehicle: saline with Tween-80) was 103 % of control, the T/C (endpoint: mean survival time, dose: 400.0 mg/kg/injection, schedule: Q01DX001 (ip), vehicle: Klucel (hydroxypropylcellulose) (HPC)) was 93 % of control and the T/C (endpoint: mean survival time, dose: 400.0 mg/kg/injection, schedule: Q01DX001 (ip), vehicle: saline with Tween-80) was 100 % of control.
For CCOC1C=CCCC1 (stereo unspecified), the T/C [3] was 95 % of control, the T/C [12] was 97 % of control and the T/C [4] was 95 % of control. The T/C [13] was 93 % of control and the T/C [14] was 97 % of control.
With CCCCCCCCCCCCCCCC(=O)Nc1c(C)cc(C)cc1C the T/C [6] was 103 % of control, the T/C [7] was 111 % of control and the T/C [8] was 91 % of control.
In the case of O=C(O)/C=C\C(=O)Nc1ccc(Cl)cc1Cl, the T/C [3] is reported as 103 % of control and the T/C [4] is reported as 95 % of control.
With COc1ccc2c(c1O)CNCC2c1ccc(O)c(O)c1 (stereo unspecified) the T/C (endpoint: mean survival time, dose: 75.0 mg/kg/injection, schedule: Q01DX001 (ip), vehicle: saline) was 106 % of control, the T/C (endpoint: mean survival time, dose: 150.0 mg/kg/injection, schedule: Q01DX001 (ip), vehicle: saline) was 106 % of control and the T/C (endpoint: mean survival time, dose: 300.0 mg/kg/injection, schedule: Q01DX001 (ip), vehicle: saline) was 108 % of control.
With C/C=C1\CC2C=CC1C2 (stereo unspecified) (tested in a mixture with another compound) the T/C (endpoint: mean survival time, dose: 80.5 mg/kg/injection, schedule: Q01DX009 (ip), vehicle: saline with Tween-80) was 98 % of control and the T/C (endpoint: mean survival time, dose: 161.0 mg/kg/injection, schedule: Q01DX009 (ip), vehicle: saline with Tween-80) was 87 % of control.
CCOC(=O)CSc1ccc(F)cc1 was tested, and the T/C [9] was 90 % of control, the T/C [10] was 100 % of control and the T/C [11] was 91 % of control.
Oc1c(Cl)c(Cl)c(Cl)c2ccccc12 was tested, and the T/C [12] was 100 % of control, the T/C [13] was 97 % of control and the T/C [14] was 100 % of control.
C=C1C(=O)OCC2(CC)CCCCC12 (stereo unspecified) was tested, and the T/C (endpoint: mean survival time, dose: 5.0 mg/kg/injection, schedule: Q01DX009 (ip), vehicle: water) was 94 % of control, the T/C (endpoint: mean survival time, dose: 10.0 mg/kg/injection, schedule: Q01DX009 (ip), vehicle: water) was 88 % of control and the T/C (endpoint: mean survival time, dose: 20.0 mg/kg/injection, schedule: Q01DX009 (ip), vehicle: water) was 96 % of control.
C=C(Br)CNC(=O)NCCN1CCOCC1 was tested, and the T/C [3] was 97 % of control, the T/C [4] was 92 % of control and the T/C [5] was 89 % of control.
